# Data taken from US8617563B2, “Antichlamydial agents” (Duke University, priority 2011, dated 2013).
# Where no end group is shown, it is not given here.
# Legend:
# [1] = system: epithelial cells infected with C. trachomatis; test: Host cell death (condensed nuclei) in C. trachomatis infected cells; type: cell-based; conditions: dose-dependent, peptide at 12 hpi
# Method: FIG. 11 depicts (A) that inhibiting CPAF activity induces host cell death. The indicated peptides (anti-CPAF peptide refers to SEQ ID NO:7) were added to infected cells 12 hpi and the percentage of infected cells with condensed nuclei was quantified at the indicated times. (B-C) Inhibition of CPAF activity induces apoptosis. Infected cells were treated with peptides and the percentage of AnnexinV-FITC positive (propidium iodide (PI) negative) was determined by flow cytometry (B). In parallel samples, cleavage of Caspase-3, a hallmark of apoptosome activation, was monitored by immunoblot analysis. Actin and MOMP are host and bacterial loading controls respectively. Staurosporine (2 μM)-treatment was used as a positive control and the pan-caspase inhibitor ZVAD-FMK were used as controls. (D) Cell death is blocked by a pan-Caspase inhibitor. Infected cells were treated as in (A) in the presence or absence of ZVAD-FMK, labeled with PI and analyzed by flow cytometry. Cells pre-treated with ZVAD-FMK and the control peptide lacked PI staining.
# FIG. 12 depicts (A) low-magnification view of C. trachomatis LGV-L2 infected HeLa monolayers (30 h) treated with SEQ ID NO:7 or SEQ ID NO:11 peptides. […] HeLa cells infected with C. muridarum were treated with Ac-YVAD-CMK at 2 hpi, SEQ ID NO:7 peptide or SEQ ID NO:11 control peptide at 12 hpi and the percentage of infected cells with condensed nuclei was assessed at 48 hpi (F). […] The percentage of infected cells with condensed nuclei was assessed at 48 hpi (G). […] Cell death in infected and uninfected cells treated with CPAF inhibitory peptides or control peptides was determined by counting the number of condensed nuclei of ˜1000 cells.
# FIG. 13 depicts (A) that Caspase-1 inhibitors block Chlamydia-mediated cell death. […] Cells were fixed and the percentage of cells with condensed nuclei determined at 24 hpi. […] Infected cells were labeled with a cell-permeable fluorescent substrate of Caspase-1 and treated with inhibitory peptides, and Caspase-1 activity was monitored by flow cytometry. […]
# CPAF = CPAF (Chlamydia trachomatis serovar D, UniProt O84866); test: HPLC-based CPAF inhibition assay with Abz-tagged model substrate (SEQ ID NO:9); type: biochemical, C. trachomatis; parameters: 6xHis; made in house; host or cells: E. coli BL21 (DE3), plasmid pET30b-CPAF
# Method: FIG. 1 depicts the results of HPLC-based CPAF inhibition assays using a model CPAF substrate (SEQ ID NO:9) to compare inhibition of CPAF protease activity by SEQ ID NO:7, SEQ ID NO:2, and lactacystin. HPLC-based assays were performed in a final volume of 100 μL containing assay buffer, CPAF (62.5 nM), substrate 1 (0.5 mM), and varying concentrations of inhibitor (0-240 μM).
# HPLC-based assays comprised an Abz-tagged model CPAF substrate (SEQ ID NO:9) and were performed in a final volume of 100 μL containing 150 mM NaCl, 50 mM Tris pH 7.50, purified CPAF (62.5 nM), fluorescent-tagged model CPAF substrate (0.5 mM), and varying concentrations of each candidate compound (0-240 μM). IC50 values were determined by pre-incubating CPAF with varying concentrations of candidate compound for 5 min at room temperature prior to initiation of the reaction via the addition of model CPAF substrate. Reactions were allowed to proceed for 90 seconds at 25° C., followed by removal of 80 μL aliquots and quenching by the addition of 1.2 M HCl (40 μL). Data were converted to percent activity relative to a control reaction without candidate compound and fit to the following equation using GraFit v6.0, where [I] is the concentration of candidate compound and s is a slope factor: […]
# Chain of CPAF (O84866 276-601): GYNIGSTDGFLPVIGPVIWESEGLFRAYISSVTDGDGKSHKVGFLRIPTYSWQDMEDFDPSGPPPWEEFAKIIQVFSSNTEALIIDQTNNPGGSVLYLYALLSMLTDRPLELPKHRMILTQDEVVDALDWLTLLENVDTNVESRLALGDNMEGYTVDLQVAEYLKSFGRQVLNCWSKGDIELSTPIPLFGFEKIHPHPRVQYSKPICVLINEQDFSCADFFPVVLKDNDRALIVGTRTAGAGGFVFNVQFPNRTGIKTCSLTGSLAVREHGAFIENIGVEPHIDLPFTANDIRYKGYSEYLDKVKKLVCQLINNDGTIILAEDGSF
# Chain of CPAF (O84866 1-234, added parts left off): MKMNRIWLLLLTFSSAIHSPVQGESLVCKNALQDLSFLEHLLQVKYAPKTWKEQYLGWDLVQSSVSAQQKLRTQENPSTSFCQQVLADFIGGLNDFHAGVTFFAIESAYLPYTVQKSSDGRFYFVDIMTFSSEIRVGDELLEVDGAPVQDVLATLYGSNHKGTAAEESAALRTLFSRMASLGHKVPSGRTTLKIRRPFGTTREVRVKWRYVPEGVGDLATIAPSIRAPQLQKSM
substance,measurement,setting,value
SLFYSPMVPHFWAELRNHYATSGLKRRRRRRRRR-NH2 [SEQ ID NO:7],Number of condensed nuclei in C. trachomatis infected cells,[1],marked increase in the number of condensed nuclei
same,IC50,"CPAF; CPAF 62.5 nM, substrate SEQ ID NO:9 0.5 mM, inhibitor 0-240 μM",0.05 ± 0.007 µM
same,CPAF inhibition relative to SEQ ID NO:2,"CPAF; HPLC-based assay, greater than SEQ ID NO:2",about 30 fold
same,CPAF inhibition relative to lactacystin,"CPAF; HPLC-based assay, greater than lactacystin",about 200 fold
